According to US5726181A, “Formulations and compositions of poorly water soluble camptothecin derivatives” (BioNumerik Pharmaceuticals, Inc., priority 1995, dated 1998):
Converted amounts (≈) assume the structure as drawn. “Also recorded” adds a separate entry of the source. Like-named read-outs stand apart in the source and are kept apart here.

Assays:
[1] = cited from earlier work
[2] = oral vs intravenous solution; cited from earlier work
[3] = test system: human patients with cancer; conditions: Phase I and Phase II human trials; cited from earlier work
human patients [4] = conditions: cited from earlier work
human patients [5] = conditions: cited from earlier work; remark: listed apart in the source
[6] = test system: advanced gastrointestinal cancer; conditions: cited from earlier work
malignant melanoma = conditions: cited from earlier work
[7] = cited from earlier work; remark: listed apart in the source
[8] = Solubility of camptothecin in various solvents; type: physicochemical; conditions: for solubility: read-out: Solubility, Concentration
Topoisomerase I [9] = conditions: purified from human colon carcinoma cells; cited from earlier work
Topoisomerase I [10] = conditions: purified from calf thymus; cited from earlier work
topoisomerase II = conditions: cited from earlier work
[11] = test system: topoisomerase I-DNA cleavable complex; conditions: cited from earlier work
DNA strand breaks = conditions: cited from earlier work
L1210 cells = conditions: cited from earlier work
[12] = greater than carboxylate form; cited from earlier work
mice = conditions: more toxic than SCPT; cited from earlier work
[13] = animals; cited from earlier work
[14] = Lactone form / chemical stability in formulation; type: physicochemical
[15] = 15 mg/m^2 × 5, 9 patients treated
[16] = 17 mg/m^2 × 5, 5 patients treated
[17] = 20 mg/m^2 × 5, 10 patients treated
[18] = 5-Day course (27 patients), 4 wks
[19] = 5-Day course (27 patients), 8 wks
[20] = 5-Day course (27 patients), 12 wks
[21] = single dose 110 mg/m^2, 2 patients treated
[22] = single dose 120 mg/m^2, 7 patients treated
[23] = single dose 180 mg/m^2, 9 patients treated
[24] = single-dose method (34 patients), 3 wks
[25] = single-dose method (34 patients), 6 wks
[26] = single-dose method (34 patients), 9 wks
[27] = single-dose method (34 patients), 12 wks
[28] = 90-360 mg/m^2 every 2 weeks, fifteen patients

In the case of `CCC1(O)C(=O)OCc2c1cc1n(c2=O)Cc2cc3cc4c(cc3nc2-1)OCCO4` (stereo not drawn) [10,11-ethylenedioxy-camptothecin, 10,11-ethylenedioxy camptothecin], the Water solubility ([1]; water) is given as “less than 5 micrograms per milliliter of water”.

For `CCc1c2c(nc3ccccc13)-c1cc3c(c(=O)n1C2)COC(=O)[C@]3(O)CC` [7-ethyl camptothecin], the Water solubility ([1]; water) is given as “less than 5 micrograms per milliliter of water”.

In the case of `COc1cc([C@@H]2c3cc4c(cc3[C@@H](O[C@@H]3O[C@@H]5CO[C@@H](C)O[C@H]5[C@H](O)[C@H]3O)[C@H]3COC(=O)[C@H]23)OCO4)cc(OC)c1O` [etoposide], the “Bioavailability following oral administration” value [2] is listed as “substantially equivalent to that achieved by intravenous administration”.

In the case of `CC[C@@](O)(C(=O)O)c1cc2n(c(=O)c1CO)Cc1cc3ccccc3nc1-2` [SCPT], the “Antitumor activity in early trials” value [3] is listed as “lack of consistent antitumor activity”, the “Toxicity in early trials” value [3] is listed as “unpredictable and severe myelosuppression,gastrointestinal toxicity, hemorrhagic cystitis, and alopecia” and the “Mean urine recovery of camptothecin, excluding patients with impaired urinary excretion” value (human patients [4]; 5 patients with impaired urinary excretion excluded, i.v., 2880 min) is listed as 22.8%. For the same compound, the “Urinary appearance of unmetabolized camptothecin” value (human patients [4]; after i.v. drug administration) was “unmetabolized camptothecin in high concentrations rapidly appeared in the urine”, the “Mean urine recovery of camptothecin” value (human patients [4]; first 48 hours, i.v.) was 17.4% and the “Urine recovery of camptothecin (range)” value (human patients [4]; first 48 hours, i.v.) was 3.6-38.9%. For the same compound, the “Time course of urinary drug excretion” value (human patients [4]; i.v.) was “most of the drug excretion occurring in the initial 12 hours”, the Sterile hemorrhagic cystitis (human patients [4]; moderately dehydrated patients) was 3 patients and the “Bladder toxicity, dose limiting” value (human patients [5]; 20 to 30 mg/m^2) was “dose limiting in three patients”. For the same compound, the “Bladder toxicity, additional patients” value (human patients [5]; 44 and 30 mg/m^2) was “two additional patients”, the “Leukopenia, incidence” value (human patients [5]; daily treatment, total dose of 100 mg/m^2) was “four of six patients” and the “Leukopenia, duration” value (human patients [5]; daily vs weekly treatment) was “more prolonged after daily treatment than after weekly treatment”. For the same compound, the Leukopenia (human patients [5]; dose-limiting toxic effect) was “Reversible leukopenia was the major dose-limiting toxic effect”, the Clinical benefit (human patients [5]; eight patients with measurable disease, 5-day courses at dose levels associated with toxicity) was “No clinical benefit was observed” and the Clinical responses (human patients [5]; weekly courses, evaluable patients) was “two of ten patients”. For the same compound, the “No. of patients with Cystitis” value ([6]; 11 mg/m^2 × 5, 2 patients treated) was 1 patients, the “No. of patients with Cystitis” value [6, 15] was 4 patients and the “No. of patients with Diarrhea” value [6, 15] was 1 patients. For the same compound, the “No. of patients with Cystitis” value [6, 16] was 2 patients, the “No. of patients with Diarrhea” value [6, 16] was 4 patients and the “No. of patients with Cystitis” value [6, 17] was 6 patients. The “No. of patients with Diarrhea” value [6, 17] was 4 patients, the “No. of patients with Diarrhea” value ([6]; 22 mg/m^2 × 5, 1 patient treated) was 1 patients and the “Improvement at 3 months” value ([6]; 3 months, 61 patients) was “none showed improvement at 3 months”. The “Objective Responses: Improved” value [6, 18] was 1 patients, the “Objective Responses: Stable” value [6, 18] was 12 patients and the “Objective Responses: Worse” value [6, 18] was 14 patients. For the same compound, the “Objective Responses: Stable” value [6, 19] was 7 patients, the “Objective Responses: Worse” value [6, 19] was 20 patients and the “Objective Responses: Stable” value [6, 20] was 6 patients. For the same compound, the “Objective Responses: Worse” value [6, 20] was 21 patients, the “Cystitis (% of 27 patients)” value ([6]; 5-Day course, P < 0.05) was 48% and the “Cystitis (% of 34 patients)” value ([6]; Single dose) was 24%. The Partial objective improvement ([6]; after 2 months (8 or 9 weeks), 61 patients) was “only two of their 61 patients”, the “Patients with 25%-50% response” value ([6]; at 3 wks only) was 3 patients and the “Diarrhea, severity and persistence” value ([6]; higher doses) was “could be quite severe to the point of fecal incontinence and persistent for as long as 4 weeks”. The “Onset of cystitis after treatment” value ([6]; in vivo) was 7 to 10 days, the “Severity of toxicity by schedule” value ([6]; prolonged (5-day) vs single-dose schedule at a given total dose) was “more prolonged schedule produced more severe toxicity at a given total dose level” and the “No. of patients with Cystitis” value ([6]; single dose 90 mg/m^2, 10 patients treated) was 1 patients. For the same compound, the “No. of patients with Cystitis” value ([6]; single dose 100 mg/m^2, 6 patients treated) was 2 patients, the “No. of patients with Cystitis” value [6, 21] was 1 patients and the “No. of patients with Diarrhea” value [6, 21] was 1 patients. For the same compound, the “No. of patients with Cystitis” value [6, 22] was 2 patients, the “No. of patients with Diarrhea” value [6, 22] was 4 patients and the “No. of patients with Cystitis” value [6, 23] was 3 patients. For the same compound, the “No. of patients with Diarrhea” value [6, 23] was 2 patients, the “Objective Responses: Improved” value [6, 24] was 4 patients and the “Objective Responses: Stable” value [6, 24] was 17 patients. For the same compound, the “Objective Responses: Worse” value [6, 24] was 13 patients, the “Objective Responses: Improved” value [6, 25] was 2 patients and the “Objective Responses: Stable” value [6, 25] was 1i. The “Objective Responses: Worse” value [6, 25] was 21 patients, the “Objective Responses: Improved” value [6, 26] was 2 patients and the “Objective Responses: Stable” value [6, 26] was 8 patients. The “Objective Responses: Worse” value [6, 26] was 24 patients, the “Objective Responses: Stable” value [6, 27] was 6 patients and the “Objective Responses: Worse” value [6, 27] was 28 patients. The “50% or greater decrease in tumor diameter” value (malignant melanoma; [28]) was “None of the patients had a 50% or greater decrease in tumor diameter”, the Transient tumor regression (malignant melanoma; [28]) was “Less pronounced transient tumor regression was noted in three patients” and the “Disease in remaining patients” value (malignant melanoma; 90-360 mg/m^2 every 2 weeks) was “no change or progression in their disease”. The Alopecia (malignant melanoma; fifteen patients) was 8 patients, the Diarrhea (malignant melanoma; fifteen patients) was 3 patients and the Hemorrhagic cystitis (malignant melanoma; fifteen patients) was 1 patients. For the same compound, the Myelosuppression (malignant melanoma; fifteen patients) was 11 patients, the Nausea and vomiting (malignant melanoma; fifteen patients) was 9 patients and the “Plasma camptothecin levels, relation to dose” value ([7]; 24 hours after SCPT, once daily×5, 6.5-20 mg/m^2/day) was “plasma camptothecin levels have little relation to the dose given”. For the same compound, the Severe toxic effects ([7]; patients with obvious renal disease excluded) was “Severe toxic effects including cystitis occurred”.

For `CCC1(O)C(=O)OCc2c1cc1n(c2=O)Cc2cc3cc4c(cc3nc2-1)OCO4` (stereo not drawn) [10,11-Methylenedioxy camptothecin, 10,11-methylenedioxy camptothecin], the Water solubility ([1]; water) is given as “less than 5 micrograms per milliliter of water”.

For `CC[C@@]1(O)C(=O)OCc2c1cc1n(c2=O)Cc2cc3ccccc3nc2-1` [Camptothecin, camptothecin], the “Solubility, Concentration” value ([8]; N-Methyl-2-pyrrolidinone (NMP)) was 15000 to 20000 µg/mL, the solubility ([8]; benzyl alcohol, organic solvent or mixture, Benzyl alcohol) was 1670 µg/mL (≈ 4810 µM) and the solubility ([8]; dimethylacetamide, organic solvent or mixture, Dimethylacetamide) was 5000 µg/mL (≈ 14400 µM). The solubility ([8]; dimethylisosorbide, organic solvent or mixture, Dimethylisosorbide) was 928 µg/mL (≈ 2660 µM), the solubility ([8]; ethanol, organic solvent or mixture, Ethanol) was 51 µg/mL (≈ 146 µM) and the solubility ([8]; milli-q water) was 0.2 µg/mL (≈ 0.574 µM). For the same compound, the solubility ([8]; n-methyl-2-pyrrolidinone (nmp), organic solvent or mixture, N-Methyl-2-pyrrolidinone (NMP)) was > 15000 µg/mL, the solubility ([8]; peg 300, organic solvent or mixture, PEG 300) was 706 µg/mL (≈ 2030 µM) and the solubility ([8]; propylene glycol, organic solvent or mixture, Propylene glycol) was 281 µg/mL (≈ 807 µM). The “Inhibition of topoisomerase I” value (Topoisomerase I [9]) was “inhibited”, the “Inhibition of topoisomerase I” value (Topoisomerase I [10]) was “inhibited” and the “Effect on topoisomerase II” value (topoisomerase II) was “no effect on topoisomerase II”. For the same compound, the “Stabilization of the topoisomerase I cleavable complex, reversibility” value [11] was “readily reversible”, the “Protein-associated DNA single-strand breaks” value (DNA strand breaks) was “induces protein-associated DNA single-strand breaks” and the “Protein linkage of DNA strand breaks” value (DNA strand breaks; in vitro cells) was “Virtually all of the DNA strand breaks observed in vitro cells treated with camptothecin are protein linked”. For the same compound, the “Protein-free DNA breaks” value (L1210 cells) was “an increase in unexplained protein-free breaks”, the “Anti-tumor activity of lactone relative to carboxylate form” value [12] was “greater than 10 fold” and the “Toxicity of lactone form relative to SCPT” value (mice) was 10 fold. The Transport into bile [13] was “extremely active transport of camptothecin into bile”, the Water solubility ([1]; lactone form, pH of 2 to 6) was “less than 5 micrograms in one milliliter o” and the “Toxicity in early trials” value [3] was “unpredictable myelosuppression and hemorrhagic cystitis”. For the same compound, the Renal excretion (human patients [5]; human, in vivo) was “excreted unchanged by the kidneys” and the “Clinical value in gastrointestinal cancer (conclusion)” value ([6]; in vivo) was “a drug of protean and unpredictable toxicity that has no clinical value in the management of gastrointestinal cancer”.

For `CCc1c2c(nc3ccc(O)cc13)-c1cc3c(c(=O)n1C2)COC(=O)[C@]3(O)CC` [7-ethyl-10-hydroxy camptothecin], the Water solubility ([1]; water) is listed as “less than 5 micrograms per milliliter of water”.

With `CN1CCCC1=O` [NMP, N-methyl-2-pyrrolidinone] the “Chemical reactivity of NMP with HLCD” value [14] was “inert with respect to undesirable chemical reactions with HLCD; also recorded: chemically inert with respect to poorly water soluble camptothecins”.
